Data: publication PMC7546004, “Targeting BCL10 by small peptides for the treatment of B cell lymphoma” (Theranostics, 2020)
Square brackets hold non-standard residues; d marks the D form. Peptide text beside a SMILES is read from it.

Legend:
[1] = tested on: DLBCL cell lines; assay type: cell-based; conditions: Figure 6D and Figure S7D
Text: (§1) GraphPad Prism software was used to determine GI50 values.

[2] = tested on: HBL1 cells; assay type: cell-based
Text: as §1

[3] = tested on: HBL1 cells; assay: Intracellular pharmacokinetics, BCL10-P4 versus DRI-BCL10-P4
Description: (§2) MBP-Bcl10 was expressed and purified as previously described {Qiao, 2013 #85}. Purified
(§3) mM NaCl, 1% NP-40) at 4 °C for 1 hour, followed by addition of 5% BSA blocked S t re ptavidin (SAV)
(§4) Immunoprecipitant were washed 5 times with IP buffer and separated by SDS-PA G E . […]
(§5) hActin- F: 5’-[…]-3’
(§6) hIL6-R: 5’- […]-3 ’.
(§7) hBcl10-F: 5’-[…] TAGAAA-3’
hBcl10-R: 5’-[…] T-3’
1x105 HBL1, TMD8, OCl-LY 1 , OCl-LY 1 , U2932, MD901 or RCK8 cells were seeded in 12-well plate
wa sh e d and lysed with RIPA buffer.
immunoblotting with Streptavidin (Cell signaling, cat. #3999S). […]

[4] = target: T1, MBP-BCL10 (Homo sapiens, UniProt O95999); assay: Co-immunoprecipitation of peptide with MBP-BCL10; assay type: binding; conditions: biotinylated peptide, streptavidin beads, 4 °C
T1 construct: made in house
Description: as §2, §3, §4, §5, §6, §7

[5] = Tolerability in xenograft mice (body weight, histology of major organs); assay type: in vivo, NCG mice
Description: Mouse xenograft experiments:
Six-week-old female NOD prkdc-/- IL-2Rg-/- (NCG) mice purchased from GemPharmatech Co., Lt d we re raised in a SPF- level Laboratory Animal Room. Low -passage 5x106 human TMD8, SU-DHL- 6 or 1x10^7 OCl-LY1 cells at 100μl were premixed with 100μl Matrigel (Corning Biocoat, cat. # 354234) and inoculated subcutaneously into the right flank of mice. When tumors reached an average size of 150 mm3, mice were randomly assigned into treatment groups (10 mg /kg DRI-BCL10- P4) or control groups (5 mg /kg BCL10- Ctl). Peptides were reconstituted in 5% DMSO/PBS and administered by i.v. injection. Tumor volumes were monitored by a digital caliper every other day and calculated using the formula: (smallest diameter2 x largest diameter)/2. Mice were weighed every day and sacrificed at the end of the treatment. T umors and main organs were harvested and we i ghte d at the moment of death. All animal experiments were approved by the Animal Institute Committee of Changhai Hospital, the Second Military Medical University.
(§8) Immunohistochemistry (IHC)
(§9) Formalin-fixed paraffin -embedded tumor xenografts were sectioned, dewaxed and submitted to antigen retrieval. The anti- Ki67 (proteintech, 27309-1) antibody was used at a 1:500 dilution.
Biotin-conjugated secondary antibodies (MXB biotechnologies, KIT-9710) were used. […]

[6] = tested on: TMD8 and SU-DHL4 cells; assay: Apoptosis (annexin V / PI staining); assay type: cell-based; conditions: annexin V+/PI- plus annexin V+/PI+, 24 h; two independent experiments
Description: ([…]); shBcl10 ([…] TGT […]). Lentivirus production using […]
selected with puromycin (Invitrogen, A1113803) for 2 weeks. Log phase growing cells were seeded […]
The number cells were measured by flow […]
Cells were harvested and RNA was extracted and quantified. Synthesis of cDNA was performed […]
QuantStudio 6 Flex (Applied Biosystems). RNA was normalized by β-Actin or GAPDH mRNA. The following quantitative PCR primers were used: […]
hGAPDH-F: 5′-[…] T […]- 3’ […]
hGAPDH-R: 5’-TACT T TAT […]-3’ […]
hActin- F: 5’-[…]-3’ […]
hActin- R: 5’-TC A […]-3’ […]
hIL10- F: 5’-GGT […] TGTCTGA-3’ […]
hIL10- R: 5’-AGGGAGT […]-3’ […]
hIL6-R: 5’- […]-3 ’. […]
hBcl10-F: 5’-[…] TAGAAA-3’ […]
hBcl10-R: 5’-[…] T-3’ […]
wa sh e d and lysed with RIPA buffer. Biotinylated BCL10 -P4 in cells were determined by immunoblotting with Streptavidin (Cell signaling, cat. #3999S).
Apoptosis and cell cycle:
1:100 dilution for 15 min at room temperature in the dark. Signals from FL1 and FL3 channels were collected by MACSQuant analyzer and data were analyzed using FloJo (Ashland, OR). […]
For cell cycle analysis, cells were washed twice with cold PBS and fixed in 70% ethanol overnight at 4°C. […] DNA content was measured by BD LSRII flow cytometer and data were analyzed in FloJo. […]
All extracts were treated with DNase in column during RNA purification. RNA integrity was determined on an Agilent 2100 Bioanalyzer (Agilent Technologies, SantaClara, CA). […]

[7] = tested on: TMD8 and SU-DHL4 cells; assay: Cell cycle analysis (PI, flow cytometry); assay type: cell-based; conditions: 5 μM or 10 μM, 24 h; two independent experiments
Description: For cell cycle analysis, cells were washed twice with cold PBS and fixed in 70% ethanol overnight at 4°C. Fixed cells were collected at 1800 rpm for 10 min and stained with PBS containing PI and DNase-free RNase A (Sigma-Aldrich) for 1h at room temperature in the dark. DNA content was measured by BD LSRII flow cytometer and data were analyzed in FloJo. […]
Committee of Changhai Hospital, the Second Military Medical University.
as §8, §9
Biotin-conjugated secondary antibodies (MXB biotechnologies, KIT-9710) were used. Then avidin/biotin peroxidase (MXB biotechnologies, KIT-9710) was applied to the slides. Color was developed with diaminobenzoate chromogen peroxidase substrate (MXB biotechnologies, MAX007TM) and counterstained with […] (MXB biotechnologies, MAX007TM). Pictures were obtained using NanoZoomer-S60 microscope ([…]).

T1 sequence (O95999 whole entry): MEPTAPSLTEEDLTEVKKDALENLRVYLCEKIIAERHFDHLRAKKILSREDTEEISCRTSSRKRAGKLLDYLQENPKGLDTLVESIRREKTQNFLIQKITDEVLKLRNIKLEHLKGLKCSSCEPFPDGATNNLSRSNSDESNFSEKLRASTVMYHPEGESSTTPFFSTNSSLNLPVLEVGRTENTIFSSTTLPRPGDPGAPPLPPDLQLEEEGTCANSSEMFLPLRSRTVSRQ

## CC[C@@H](C)[C@@H](NC(=O)[C@@H](CCCCN)NC(=O)[C@H](NC(=O)[C@@H](Cc1c[nH]c2ccccc12)NC(=O)[C@@H](Cc1ccccc1)NC(=O)[C@@H](CCC(N)=O)NC(=O)[C@@H](CC(N)=O)NC(=O)[C@@H](CCCNC(=N)N)NC(=O)[C@@H](CCCNC(=N)N)NC(=O)[C@@H](CCSC)NC(=O)[C@@H](CCCCN)NC(=O)[C@@H](Cc1c[nH]c2ccccc12)NC(=O)[C@@H](CCCCN)NC(=O)[C@@H](CCCCN)NC(=O)[C@@H](CCCNC(=N)N)NC(=O)[C@H](NC(=O)[C@@H](CO)NC(=O)[C@@H](CO)NC(=O)[C@@H](CCCNC(=N)N)NC(=O)[C@@H](CCCCN)NC(=O)[C@@H](CCCNC(=N)N)NC(=O)[C@@H](C)NC(=O)CNC(=O)[C@@H](CCCCN)NC(=O)[C@@H](CC(C)C)NC(=O)[C@@H](CC(C)C)NC(=O)[C@@H](CC(=O)O)NC(=O)[C@@H](Cc1ccc(O)cc1)NC(=O)[C@@H](CC(C)C)NC(=O)[C@@H](CCC(N)=O)NC(=O)[C@H](N)CCC(=O)O)[C@H](C)O)[C@H](C)CC)C(=O)N[C@H](CCC(N)=O)C(=O)N[C@H](CCCNC(=N)N)C(=O)N[C@H](CC(=O)O)C(=O)O [DRI-BCL10-P4] (H-[dE][dQ][dL][dY][dD][dL][dL][dK]G[dA][dR][dK][dR][dS][dS][dT][dR][dK][dK][dW][dK][dM][dR][dR][dN][dQ][dF][dW][dI][dK][dI][dQ][dR][dD]-OH)
[1]
  growth of CB-SMOC-dependent cell lines (HBL1, TMD8 and SU-DHL4 cells): selectively suppressed the growth of CB-SMOC-dependent cell lines
[2]
  GI50: 6.78 ± 3.7 µM
[3]
  intracellular level after the first 4 h (intracellular stability): maintained for a much longer time
  uptake by HBL1 cells and level within the first 4 h: similarly taken up
[4]
  interaction with MBP-BCL10 (co-immunoprecipitation): interacted with BCL10
[5]; 10 mg/kg Q.d., i.v., Figure 7C-F
  adverse effects in the mice (body weight): without inducing notable adverse effects
[5]; 10 mg/kg daily for 11 days, Figure S8D
  histological examination of the major organs (H&E): did not result in discernible damage to these organs
[6]
  apoptosis of TMD8 and SU-DHL4 cells: induced apoptosis
[7]
  cell cycle profile of TMD8 and SU-DHL4 cells: cell cycle arrest
